Read-outs that look alike come from different tables or passages of the source.
Key:
Assay type in all cases: cell-based
[1] = system: HBsAg; experiment: PHH HBV natural infection assay, HBsAg (alphalisa)
Summary of the method: (§1)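 Primary human hepatocytes infected with HBV at 200 GE/cell plus 4% PEG8000 for 24 h, then sandwich-cultured 72 h. Compounds were added in two refreshes 72 h apart. HBsAg and HBeAg in supernatant measured by AlphaLISA.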

[2] = system: HBeAg; experiment: PHH HBV natural infection assay, HBeAg (alphalisa)
Summary of the method: as §1

[3] = system: primary human hepatocyte (PHH); experiment: PHH natural infection assay, cytotoxicity (Cell Counting Kit-8); settings: HBV-infected primary human hepatocytes, CCK8, end of treatment
Summary of the method: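 HBV-infected at 200 GE/cell with 4% PEG8000 for 24 h, then sandwich-cultured 72 h in 1% DMSO and 0.25 mg/mL matrix gel. Compound added twice at 72-h intervals; supernatant HBsAg and HBeAg read by AlphaLISA, HBV DNA by quantitative fluorescence PCR kit. Cytotoxicity by CCK-8.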

[4] = read-out: HBsAg IC50; HBV-infected primary human hepatocytes, supernatant, compound medium refreshed two times with 72-hour interval
[5] = read-out: HbeAg IC50; HBV-infected primary human hepatocytes, supernatant, compound medium refreshed two times with 72-hour interval

| Structure (SMILES) | IC50 [1, 4] [µM] | IC50 [2, 5] [µM] | CC50 [3] [µM] | IC50 ([1]; HBV-infected primary human hepatocytes, supernatant, compound medium refreshed two times with 72-hour interval; read-out: HBsAg IC50) [µM] | IC50 ([2]; HBV-infected primary human hepatocytes, supernatant, compound medium refreshed two times with 72-hour interval; read-out: HbeAg IC50) [µM] |
| --- | --- | --- | --- | --- | --- |
| CS(=N)(=O)c1ccc(C(=O)NC2CC3(C2)CC(c2nc4cc(Cl)ccc4o2)C3)o1 (single isomer, unassigned) [Example 52-c, N-[6-(5-chloro-1,3-benzoxazol-2-yl)spiro[3.3]heptan-2-yl]-5-(methylsulfonimidoyl)furan-2-carboxamide] | 5.04 | 3.61 | > 100 |  |  |
| N=S(=O)(c1ccc(C(=O)NC2CC3(C2)CC(c2nc4cc(Cl)ccc4o2)C3)o1)C1CC1 (single isomer, unassigned) [Example 53-a, N-[6-(5-chloro-1,3-benzoxazol-2-yl)spiro[3.3]heptan-2-yl]-5-(cyclopropylsulfonimidoyl)furan-2-carboxamide] | 1.89 | 1.27 | > 10 |  |  |
| N=S(=O)(c1ccc(C(=O)NC2CC3(C2)CC(c2nc4cc(Cl)ccc4o2)C3)o1)C1CC1 (single isomer, unassigned) [Example 53-b, N-[6-(5-chloro-1,3-benzoxazol-2-yl)spiro[3.3]heptan-2-yl]-5-(cyclopropylsulfonimidoyl)furan-2-carboxamide] | 6.83 | 4.65 | > 10 |  |  |
| N=S(=O)(c1ccc(C(=O)NC2CC3(C2)CC(c2nc4cc(Cl)ccc4o2)C3)o1)C1CC1 (single isomer, unassigned) [Example 53-d, N-[6-(5-chloro-1,3-benzoxazol-2-yl)spiro[3.3]heptan-2-yl]-5-(cyclopropylsulfonimidoyl)furan-2-carboxamide] | 1.12 | 1.34 | 92.8 |  |  |
| N=S(=O)(CC1CC1)c1ccc(C(=O)NC2CC3(C2)CC(c2nc4cc(Cl)ccc4o2)C3)o1 (single isomer, unassigned) [Example 54-a, N-[6-(5-chloro-1,3-benzoxazol-2-yl)spiro[3.3]heptan-2-yl]-5-(cyclopropylmethylsulfonimidoyl)furan-2-carboxamide] | 6.06 | 5.7 | > 10 |  |  |
| N=S(=O)(CC1CC1)c1ccc(C(=O)NC2CC3(C2)CC(c2nc4cc(Cl)ccc4o2)C3)o1 (single isomer, unassigned) [Example 54-b, N-[6-(5-chloro-1,3-benzoxazol-2-yl)spiro[3.3]heptan-2-yl]-5-(cyclopropylmethylsulfonimidoyl)furan-2-carboxamide] | 0.285 | 0.166 | > 100 |  |  |
| N=S(=O)(CC1CC1)c1ccc(C(=O)NC2CC3(C2)CC(c2nc4cc(Cl)ccc4o2)C3)o1 (single isomer, unassigned) [Example 54-c, N-[6-(5-chloro-1,3-benzoxazol-2-yl)spiro[3.3]heptan-2-yl]-5-(cyclopropylmethylsulfonimidoyl)furan-2-carboxamide] | 5.84 | 4.59 | > 10 |  |  |
| N=S(=O)(CC1CC1)c1ccc(C(=O)NC2CC3(C2)CC(c2nc4cc(Cl)ccc4o2)C3)o1 (single isomer, unassigned) [Example 54-d, N-[6-(5-chloro-1,3-benzoxazol-2-yl)spiro[3.3]heptan-2-yl]-5-(cyclopropylmethylsulfonimidoyl)furan-2-carboxamide] | 0.703 | 0.694 | > 10 |  |  |
| N=S(=O)(c1ccc(C(=O)NC2CC3(C2)CC(c2nc4cc(Cl)cnc4o2)C3)o1)C1CC1 (single isomer, unassigned) [Example 64-b, N-[6-(6-chlorooxazolo[5,4-b]pyridin-2-yl)spiro[3.3]heptan-2-yl]-5-(cyclopropylsulfonimidoyl)furan-2-carboxamide] | 9.46 | 9.13 | > 10 |  |  |
| CCC(=O)NS(=O)(=O)c1ccc(C(=O)NC2CC3(C2)CC(c2nc4cc(Cl)ccc4o2)C3)o1 (stereo not drawn) [Example 68, (Sa)—N-[6-(5-chloro-1,3-benzoxazol-2-yl)spiro[3.3]heptan-2-yl]-5-(propanoylsulfamoyl)furan-2-carboxamide, or (Ra)—N-[6-(5-chloro-1,3-benzoxazol-2-yl)spiro[3.3]heptan-2-yl]-5-(propanoylsulfamoyl)furan-2-carboxamide] |  |  | > 100 | 0.626 | 0.371 |

— patent publication US20230286969A1, “AROMATIC SPIRO RING AMIDE DERIVATIVES FOR THE TREATMENT AND PROPHYLAXIS OF HEPATITIS B VIRUS INFECTION” (Hoffmann-La Roche Inc., priority 2020, published 2023)
